Data reported in patent US12214008B2, “Protein interfaces” (SyntheX, Inc., priority 2016, dated 2025).
Entries after “also recorded” stand apart in the source; their conditions may differ. Residues, ends and D or L forms follow the SMILES beside them. Groups on a side chain read outwards from the residue. *: point of attachment. 5FAM = O=C1OC2(c3ccc(O)cc3Oc3cc(O)ccc32)c2ccc(C(=O)*)cc21; Ahx = NCCCCCC(=O)O

Experiments:
SSP-25 cells [1] = experiment: xCELLigence cell death assay; assay type: cell-based; conditions: for rescue of compound 10-induced cell death by ruthenium red: 40 μM Ruthenium red added to cells treated with 10 μM compound 10
Procedure: Further, singly-dosed cells continued to recover, which indicated reduced general cytotoxicity of the compound in the media or the lysed cells.
To optimize cellular activity, compounds were tested in xCELLigence cell death assays against various cell lines. An example of the workflow used is shown using A549 cells and compound 10 in FIGS. 15 and 16. […] Data from xCELLigence traces at different compound concentrations from FIG. 15 was then used to generate a dose-response curve, which was then subjected to nonlinear regression using a sigmoidal dose-response model to generate IC50s and R2 values for cell death for each compound/cell line combination (FIG. 16).
To further investigate the hypothesis that peptide binding to RAD51 in cells causes cell death via increases in intracellular free calcium levels, compound 10 alone and in combination with two different intracellular calcium chelators (1,2-Bis(2-aminophenoxy) ethane-N,N,N′,N′-tetraacetic acid tetrakis(acetoxymethyl ester) aka “BAPTA-AM”, and ammoniated ruthenium oxychloride aka “ruthenium red”) was tested in an xCELLigence™ cell death assay as in Example 3. The intracellular calcium chelators alone were also evaluated on the cells.

SSP-25 cells [2] = experiment: MTT growth inhibition assay; assay type: cell-based; conditions: 5 μM or 10 μM, 48 hours of cell growth, vs water mock
Procedure: To assess the growth inhibitory properties of compounds disclosed herein, 5 μM or 10 μM of compounds 1, 3, and 5 were tested against a water mock treatment for growth inhibition of SSP-25 cells using an MTT assay after 48 hours of cell growth.

SSP-25 cells [3] = experiment: growth assay (percent confluence); assay type: cell-based; conditions: 5 μM or 10 μM, compared to PBS
Procedure: A growth assay was performed using SSP-25 cells with 5 μM or 10 μM of compound 1. […] The experimental protocol described in Example 3 was used for the growth assay.
The same growth assay was repeated using 10 μM of compound 1 and compound 2. Compound 2 contains a single substitution within the core consensus sequence, which interrupts the binding of compound 2 to RAD51.

GM08505, Blm cells = test system: GM08505, Blm cells
Procedure: To assess the ability of compounds disclosed herein to rescue the drug-sensitivity of Bloom's Syndrome patient cells, GM08505, Blm cells were treated with PBS, 5 μM etoposide, or 5 μM etoposide and 10 μM compound 5.

HeLa = conditions: compound 5 at 5 μM, compound 1 at 10 μM
Procedure: (§1) To assess the specificity of compounds disclosed herein in targeting cancers with mutations in the BRCA2 pathway, compounds 1 and 5 were tested against HeLa (human cervical cancer) and SSP-25 cells (cholangiocarcinoma cell line) (FIG. 2). To measure killing of the cells by compounds 1 and 5, a cell stain (CytoTox Red™) was used, which can be measured spectrophotometrically, and is indicative of cell viability. First, 5,000 cells were incubated in 96-well culture plates overnight. The media (RPMI with 10% FBS) was removed and replaced with serum free media (RPMI) containing 125 nM CytoTox Red™. FITC-labeled compounds 5 and 1 were added to concentrations of 5 μM and 10 μM, respectively, and imaging commenced using an IncuCyte™ instrument using 15 minute time points. 2× serum-containing media was added after one hour incubation, and the cells were imaged every 2 hours. To detect CytoTox Red™ the following parameters were used: Excitation Wavelength: 585 nm; Passband: [565,605] nm and Emission Wavelength: 635 nm; Passband: [625, 705] nm. To detect compounds 5 and 1 using the FITC label, the following parameters were used: Excitation Wavelength: 460 nm; Passband: [440,480] nm and Emission Wavelength: 524 nm; Passband: [504,544] nm was used.

SSP-25 cells [4] = conditions: compound 5 at 5 μM, compound 1 at 10 μM; vs PBS
Procedure: as §1

RAD51 = target: T1, RAD51 (Homo sapiens, UniProt Q06609); experiment: microscale thermophoresis; assay type: binding; conditions: 0 vs 1 mM Ca2+
T1 sequence (Q06609 1-339): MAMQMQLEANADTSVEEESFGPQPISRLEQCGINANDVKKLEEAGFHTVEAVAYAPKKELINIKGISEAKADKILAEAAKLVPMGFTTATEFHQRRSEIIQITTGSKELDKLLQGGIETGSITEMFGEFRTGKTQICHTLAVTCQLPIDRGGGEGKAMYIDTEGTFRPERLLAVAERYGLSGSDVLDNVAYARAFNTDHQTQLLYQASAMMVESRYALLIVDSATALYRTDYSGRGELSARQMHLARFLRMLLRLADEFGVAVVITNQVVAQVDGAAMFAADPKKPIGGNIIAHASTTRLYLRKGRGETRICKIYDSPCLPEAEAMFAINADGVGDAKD
Procedure: To test the interaction between calcium binding and peptide binding to RAD51, the Kds of active (Compound 5, 10) peptides for RAD51 were tested by a microscale thermophoresis assay, and the Kd of compound 5 was additionally performed in the presence of 1 mM calcium.
Microscale thermophoresis was performed as previously described (see, for e.g. Jerabek-Willemsen, M., Wienken, C. J., Braun, D., Baaske, P. & Duhr, S. Molecular interaction studies using microscale thermophoresis. Assay Drug Dev. Technol. 9, 342-353 (2011)). The affinity of the Compound was measured using the Monolith NT.115 from Nanotemper Technologies. Rad51 was fluorescently labelled according to the manufacturer's protocol and the labelled protein used for each assay was about 500 nM. A solution of unlabelled peptide was diluted for appropriate serial concentration gradient. The samples were loaded into silica capillaries (Polymicro Technologies). Measurements were performed at room temperature in buffer containing PBS, 0.1% Tween 20, 0.5 mM ATP, 2.5 uM ssDNA, with 1 mM CaCl2 (when mentioned). Measurements were done using 12% LED power and 60% MST power. The assays were repeated three times for each affinity measurement. Data analyses were performed using Nanotemper Analysis software and OriginPro 8.0 software provided by the manufacturer.

PC3 cells = experiment: xCELLigence cell death assay; conditions: 60 μM at 24 hours
Procedure: First, 5,000 PC3 cells were plated, and adherence and growth was measured for 24 hours using live measurements of current impedance through the plate using the xCELLigence™ instrument. […] This was repeated again at the 124 hour mark.

CC(=O)OCOC(=O)CN(CC(=O)OCOC(C)=O)c1ccccc1OCCOc1ccccc1N(CC(=O)OCOC(C)=O)CC(=O)OCOC(C)=O [BAPTA-AM, 1,2-Bis(2-aminophenoxy) ethane-N,N,N′,N′-tetraacetic acid tetrakis(acetoxymethyl ester)]
rescue of compound 10-induced cell death by BAPTA-AM (SSP-25 cells [1]; 10 μM BAPTA-AM added to cells treated with 10 μM compound 10): able to counteract the cell-death inducing effects of compound 10; also recorded: rescues cell death relative to compound alone; also recorded: rescues cell death due to compound 10

Ac-K(C6_5FAM)-QSLRLGLSRLARVKRLHPGARRRRRRRR-NH2 (Ac-K(C6_5FAM)QSLRLGLSRLARVKRLHPGARRRRRRRR-NH2) [Compound 1]
growth inhibition of SSP-25 cells (SSP-25 cells [2]): dose-dependent effect on the growth of SSP-25
percent confluence of SSP-25 cells (SSP-25 cells [3]): decreased the percent confluence of the cells

COc1cc([C@@H]2c3cc4c(cc3[C@@H](O[C@@H]3O[C@@H]5CO[C@@H](C)O[C@H]5[C@H](O)[C@H]3O)[C@H]3COC(=O)[C@H]23)OCO4)cc(OC)c1O [etoposide, reference compound]
growth of Blm cells (percent confluence) (GM08505, Blm cells; 5 μM etoposide alone): growth of the Blm cells was affected

KQSLRLGLSRLARVKRLHPGARRRRRRRR [Compound 3]
growth inhibition of SSP-25 cells (SSP-25 cells [2]): dose-dependent effect on the growth of SSP-25

N.N.N.N.N.N.N.N.N.N.N.N.N.N.[Cl-].[Cl-].[Cl-].[Cl-].[Cl-].[Cl-].[O-2].[O-2].[Ru+3].[Ru+3].[Ru+4] [Ruthenium red, ammoniated ruthenium oxychloride]
rescue of compound 10-induced cell death by ruthenium red (SSP-25 cells [1]): able to counteract the cell-death inducing effects of compound 10; also recorded: rescues cell death relative to compound alone
rescue of compound 10-induced cell death by ruthenium red (SSP-25 cells [1]; listed as ruthenium red): rescues cell death due to compound 10

CSCC[C@H](NC(=O)[C@H](CCCNC(=N)N)NC(=O)[C@H](CO)NC(=O)[C@@H](NC(=O)[C@H](CCCNC(=N)N)NC(=O)[C@H](CC(C)C)NC(=O)[C@H](CCCNC(=N)N)NC(=O)[C@@H](NC(=O)CNC(=O)[C@H](CC(C)C)NC(=O)[C@H](CCCNC(=N)N)NC(=O)[C@H](CCCCN)NC(=O)[C@H](CCCNC(=N)N)NC(=O)[C@H](CCCNC(=N)N)NC(=O)[C@H](CCCNC(=N)N)NC(=O)[C@H](CCCNC(=N)N)NC(=O)[C@H](CCCNC(=N)N)NC(=O)[C@H](CCCNC(=N)N)NC(=O)[C@H](CCCNC(=N)N)NC(=O)[C@H](CCCCNC(=O)CCCCCNC(=O)c1ccc2c(c1)C(=O)OC21c2ccc(O)cc2Oc2cc(O)ccc21)NC(C)=O)C(C)C)C(C)C)C(=O)N[C@@H](CC(C)C)C(N)=O [Compound 5] (Ac-K([Ahx-5FAM])RRRRRRRKRLGVRLRVSRML-NH2)
growth inhibition of SSP-25 cells (SSP-25 cells [2]): strongest inhibitory effect, regardless of concentration
efficacy in acidified media (SSP-25 cells [1]; 30 μM added at 72 hours to previously untreated cells): efficacy of compound 5 in acidified media
cell death kinetics (cell index) (SSP-25 cells [1]; 30 μM compound 5 added at 20 hours): acute cell death kinetics
cell death (CytoTox Red staining) in HeLa cells (HeLa): little cell death is generated in the HeLa cells compared to the SSP-25 cells
cell death (CytoTox Red staining) in SSP-25 cells (SSP-25 cells [4]): greatest efficacy in the SSP-25 cells
rescue of etoposide-induced growth defect of Blm cells (percent confluence) (GM08505, Blm cells; 5 μM etoposide and 10 μM compound 5, comparable to PBS): able to rescue the hypersensitivity of a Bloom's cell line (GM08505) to a genotoxic stress (etoposide); also recorded: suppression of cell growth defects induced by etoposide
increase of Kd when calcium (Ca2+) raised from 0 to 1 mM (RAD51): 3.4 fold
cell death of PC3 cells (cell index) (PC3 cells): acute cell death kinetics; also recorded: highly potent
PC3 cells eliminated (PC3 cells; 100 μM more at 84 and 124 hours, compared to compound 6 and PBS controls): over 75%
